This is an account of results in ChEMBL document CHEMBL1201862, “PubChem BioAssay data set” (2004).

One experiment deals with H4. Kind of experiment: Luminescence Cell-Based Dose Response HTS to Identify Activators of 5'UTR Stem-Loop Driven Prion Protein mRNA Translation in H4 Neuroglioblastoma Cells. [Related pubchem assays: 1829 (Project Summary), 1814 (Primary HTS)]. The class given is functional. The following applies: Homo sapiens.
Experiment [1] in a line: A549 cell cytotoxicity, dose response, cytotoxicity control, plate reader, cherry-pick, antagonist series (AID 743412). The class given is functional, cell-based.
The nature of experiment [2]: LGR2 antagonists, dose response, cell-based, HEK293, CRE-luciferase reporter, cherry pick, set 2 (AID 743343).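 Also: transfected cells were stimulated with diluted bursicon conditioned medium after compound addition.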 The format is functional. For orientation: In a reporter assay the amount or activity of a reporter protein is the signal.
A further experiment deals with HEK293. Kind of experiment: cells. The format is functional, cell-based. The following applies: Homo sapiens.
The target in experiment [3] is Megakaryocyte-associated tyrosine-protein kinase (Homo sapiens, UniProt P42679). The format is functional.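 Also: affinity measured as one member of a kinase panel (Navigating the Kinome) against MATK.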
Experiment [4] addresses Ribosomal protein S6 kinase alpha-3 (Homo sapiens, UniProt P51812). The class given is functional.
The target in experiment [5] is Protein kinase C zeta type (Homo sapiens, UniProt Q05513). The class given is functional.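 Also: measured as one member of a broad kinase profiling panel.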
The target in experiment [6] is RAC-gamma serine/threonine-protein kinase (Homo sapiens, UniProt Q9Y243). The format is functional.
In experiment [7] the target is Protein kinase C delta type (Homo sapiens, UniProt Q05655). The class given is functional.
Experiment [8] deals with Proto-oncogene tyrosine-protein kinase receptor Ret (Homo sapiens, UniProt P07949). The format is functional.
The target in experiment [9] is Calcium/calmodulin-dependent protein kinase type II subunit gamma (Homo sapiens, UniProt Q13555). The format is functional.
For experiment [10], the target named is Tyrosine-protein kinase receptor TYRO3 (Homo sapiens, UniProt Q06418). The class given is functional.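 Also: TYRO3 value obtained as one member of a kinome-wide profiling panel.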
Chain of Tyrosine-protein kinase receptor TYRO3 (Q06418 whole entry): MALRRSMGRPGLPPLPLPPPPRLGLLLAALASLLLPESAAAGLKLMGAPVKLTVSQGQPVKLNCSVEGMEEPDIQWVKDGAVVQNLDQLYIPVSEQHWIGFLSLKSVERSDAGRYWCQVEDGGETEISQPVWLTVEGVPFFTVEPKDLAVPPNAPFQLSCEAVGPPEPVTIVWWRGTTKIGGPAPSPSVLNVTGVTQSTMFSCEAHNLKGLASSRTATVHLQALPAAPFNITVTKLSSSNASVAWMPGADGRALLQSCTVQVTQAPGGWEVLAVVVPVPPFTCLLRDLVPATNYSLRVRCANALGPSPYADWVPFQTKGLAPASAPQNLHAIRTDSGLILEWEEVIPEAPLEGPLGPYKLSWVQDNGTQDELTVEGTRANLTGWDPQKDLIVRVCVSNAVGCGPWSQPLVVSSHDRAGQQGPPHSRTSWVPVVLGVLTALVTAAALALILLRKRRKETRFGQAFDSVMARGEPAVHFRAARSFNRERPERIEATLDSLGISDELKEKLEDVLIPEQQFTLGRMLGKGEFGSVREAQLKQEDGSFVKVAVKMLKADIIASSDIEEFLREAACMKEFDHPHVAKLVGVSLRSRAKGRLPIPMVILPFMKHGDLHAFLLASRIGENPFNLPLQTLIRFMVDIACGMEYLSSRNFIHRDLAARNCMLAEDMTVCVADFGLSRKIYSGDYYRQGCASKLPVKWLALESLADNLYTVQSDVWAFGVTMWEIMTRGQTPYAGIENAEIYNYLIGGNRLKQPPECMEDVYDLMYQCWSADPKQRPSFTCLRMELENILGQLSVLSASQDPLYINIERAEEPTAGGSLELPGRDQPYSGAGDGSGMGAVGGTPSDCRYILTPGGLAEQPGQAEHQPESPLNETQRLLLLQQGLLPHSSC
The target in experiment [11] is Serine/threonine-protein kinase 17A (Homo sapiens, UniProt Q9UEE5). The format is functional.
The next experiment concerns the target Aurora kinase A (Homo sapiens, UniProt O14965). The class given is functional.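 Also: value from the Navigating the Kinome kinase panel profiling, panel entry STK6.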
Experiment [12] concerns the target Cell division cycle 7-related protein kinase (Homo sapiens, UniProt O00311). The class given is functional.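 Also: value obtained from a kinome-wide kinase panel.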
The target in experiment [13] is Serine/threonine-protein kinase PAK 4 (Homo sapiens, UniProt O96013). The class given is functional.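 Also: value obtained within a kinome profiling panel in which PAK4 was one of the panel members.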
Experiment [14] addresses Calcium/calmodulin-dependent protein kinase type II subunit delta (Homo sapiens, UniProt Q13557). The class given is functional.
For experiment [15], the target named is Tyrosine-protein kinase JAK3 (Homo sapiens, UniProt P52333). The format is functional.
Chain of Tyrosine-protein kinase JAK3 (P52333 whole entry): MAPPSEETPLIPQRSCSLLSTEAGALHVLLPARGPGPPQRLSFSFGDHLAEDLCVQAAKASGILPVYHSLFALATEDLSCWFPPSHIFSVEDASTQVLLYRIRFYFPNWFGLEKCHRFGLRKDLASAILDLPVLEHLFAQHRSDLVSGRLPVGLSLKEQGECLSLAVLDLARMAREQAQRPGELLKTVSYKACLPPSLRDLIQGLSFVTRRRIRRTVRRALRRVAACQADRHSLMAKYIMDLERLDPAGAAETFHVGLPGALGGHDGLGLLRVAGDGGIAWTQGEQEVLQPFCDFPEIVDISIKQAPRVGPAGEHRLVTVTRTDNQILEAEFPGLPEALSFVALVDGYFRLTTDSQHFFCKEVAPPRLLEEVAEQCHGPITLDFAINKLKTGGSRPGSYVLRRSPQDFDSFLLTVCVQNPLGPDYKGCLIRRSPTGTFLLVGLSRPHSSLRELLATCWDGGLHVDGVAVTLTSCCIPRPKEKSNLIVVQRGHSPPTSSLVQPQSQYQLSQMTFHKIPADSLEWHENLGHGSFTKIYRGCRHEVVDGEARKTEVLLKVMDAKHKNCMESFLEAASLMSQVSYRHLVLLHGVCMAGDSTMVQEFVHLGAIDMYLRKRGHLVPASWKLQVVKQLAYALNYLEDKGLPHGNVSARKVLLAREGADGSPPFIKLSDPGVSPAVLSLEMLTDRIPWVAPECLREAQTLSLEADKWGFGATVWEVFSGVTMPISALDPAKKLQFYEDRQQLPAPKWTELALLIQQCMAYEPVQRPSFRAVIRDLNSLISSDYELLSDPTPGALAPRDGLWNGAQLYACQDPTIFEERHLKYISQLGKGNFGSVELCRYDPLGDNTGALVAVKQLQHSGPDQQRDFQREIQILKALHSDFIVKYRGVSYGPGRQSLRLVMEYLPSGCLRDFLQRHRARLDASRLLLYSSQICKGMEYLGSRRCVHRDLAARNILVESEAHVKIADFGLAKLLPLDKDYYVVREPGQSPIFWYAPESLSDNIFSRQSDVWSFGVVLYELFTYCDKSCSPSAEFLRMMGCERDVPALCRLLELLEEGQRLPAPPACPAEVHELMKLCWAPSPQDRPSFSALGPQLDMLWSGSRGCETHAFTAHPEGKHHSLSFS
In experiment [16] the target is Serine/threonine-protein kinase pim-3 (Homo sapiens, UniProt Q86V86). The format is functional.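 Also: value obtained as one member of a broad kinase panel profiling effort.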
For experiment [17], the target named is Mitogen-activated protein kinase kinase kinase kinase 2 (Homo sapiens, UniProt Q12851). The format is functional.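 Also: measured as one member of a kinome-wide kinase panel, with MAP4K2 as the panel entry.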
For experiment [18], the target named is Hepatocyte growth factor receptor (Homo sapiens, UniProt P08581). The format is functional.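 Also: kinase panel profiling across the kinome, with MET as the panel member.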
Experiment [19] has as its target Tyrosine-protein kinase ABL1 (Homo sapiens, UniProt P00519). The format is functional.
In experiment [20] the target is Cyclin-dependent kinase 5 (Homo sapiens, UniProt Q00535). The class given is functional.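 Also: CDK5 measured as one member of a kinase profiling panel.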
A further experiment deals with Focal adhesion kinase 1 (Homo sapiens, UniProt Q05397). The format is functional.
Chain of Focal adhesion kinase 1 (Q05397 whole entry): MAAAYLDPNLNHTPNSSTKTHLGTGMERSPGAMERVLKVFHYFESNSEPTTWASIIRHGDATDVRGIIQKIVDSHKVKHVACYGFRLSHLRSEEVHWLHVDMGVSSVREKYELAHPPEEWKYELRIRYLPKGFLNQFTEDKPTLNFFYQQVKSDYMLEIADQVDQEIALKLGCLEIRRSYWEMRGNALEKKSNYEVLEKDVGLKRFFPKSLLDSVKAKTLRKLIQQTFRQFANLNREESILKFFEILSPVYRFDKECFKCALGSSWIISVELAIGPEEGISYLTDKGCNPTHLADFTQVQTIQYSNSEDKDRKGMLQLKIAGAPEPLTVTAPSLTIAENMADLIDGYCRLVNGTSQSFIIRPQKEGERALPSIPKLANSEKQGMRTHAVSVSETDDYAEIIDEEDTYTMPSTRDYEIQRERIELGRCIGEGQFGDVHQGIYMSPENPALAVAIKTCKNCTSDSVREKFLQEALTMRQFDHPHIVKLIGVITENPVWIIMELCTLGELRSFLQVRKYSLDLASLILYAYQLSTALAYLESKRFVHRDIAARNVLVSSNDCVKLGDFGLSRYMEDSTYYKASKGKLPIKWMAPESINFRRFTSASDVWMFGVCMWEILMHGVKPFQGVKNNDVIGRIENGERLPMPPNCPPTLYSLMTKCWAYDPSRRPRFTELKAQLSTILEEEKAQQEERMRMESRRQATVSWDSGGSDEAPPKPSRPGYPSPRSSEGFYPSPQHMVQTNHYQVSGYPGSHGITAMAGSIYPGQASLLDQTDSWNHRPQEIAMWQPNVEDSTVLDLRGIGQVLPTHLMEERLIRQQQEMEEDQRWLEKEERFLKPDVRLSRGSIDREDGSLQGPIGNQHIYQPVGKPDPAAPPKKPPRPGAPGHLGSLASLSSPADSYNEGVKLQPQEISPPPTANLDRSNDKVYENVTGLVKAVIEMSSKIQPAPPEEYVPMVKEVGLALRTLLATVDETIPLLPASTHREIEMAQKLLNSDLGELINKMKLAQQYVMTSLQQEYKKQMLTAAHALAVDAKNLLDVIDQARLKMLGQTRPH
The next experiment deals with Aurora kinase B (Homo sapiens, UniProt Q96GD4). The class given is functional.
Experiment [21] concerns the target Serine/threonine-protein kinase Nek2 (Homo sapiens, UniProt P51955). The format is functional.
Experiment [22] deals with Fibroblast growth factor receptor 3 (Homo sapiens, UniProt P22607). The class given is functional.
The target of experiment [23] is Serine/threonine-protein kinase PLK1 (Homo sapiens, UniProt P53350). The class given is functional.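 Also: PLK1 measured as one member of a kinome-wide profiling panel.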
The target in experiment [24] is Glycogen synthase kinase-3 beta (Homo sapiens, UniProt P49841). The format is functional.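 Also: value comes from a broad kinome profiling panel, with GSK3B as the panel member.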
Chain of Glycogen synthase kinase-3 beta (P49841 whole entry): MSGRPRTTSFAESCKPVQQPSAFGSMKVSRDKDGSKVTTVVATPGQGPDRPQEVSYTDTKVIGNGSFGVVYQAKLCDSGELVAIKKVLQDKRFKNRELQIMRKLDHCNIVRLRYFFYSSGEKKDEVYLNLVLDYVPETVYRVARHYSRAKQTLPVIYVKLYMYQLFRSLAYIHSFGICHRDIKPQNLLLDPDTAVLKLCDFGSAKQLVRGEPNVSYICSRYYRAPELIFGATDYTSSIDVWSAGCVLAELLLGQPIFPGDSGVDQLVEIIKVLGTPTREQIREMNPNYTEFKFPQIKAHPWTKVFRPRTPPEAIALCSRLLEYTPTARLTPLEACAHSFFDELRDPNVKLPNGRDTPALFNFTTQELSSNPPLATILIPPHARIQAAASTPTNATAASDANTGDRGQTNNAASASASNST
The target of experiment [25] is Mitogen-activated protein kinase 12 (Homo sapiens, UniProt P53778). The format is functional.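 Also: measured as one member of a kinome-wide kinase profiling panel.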
Chain of Mitogen-activated protein kinase 12 (P53778 whole entry): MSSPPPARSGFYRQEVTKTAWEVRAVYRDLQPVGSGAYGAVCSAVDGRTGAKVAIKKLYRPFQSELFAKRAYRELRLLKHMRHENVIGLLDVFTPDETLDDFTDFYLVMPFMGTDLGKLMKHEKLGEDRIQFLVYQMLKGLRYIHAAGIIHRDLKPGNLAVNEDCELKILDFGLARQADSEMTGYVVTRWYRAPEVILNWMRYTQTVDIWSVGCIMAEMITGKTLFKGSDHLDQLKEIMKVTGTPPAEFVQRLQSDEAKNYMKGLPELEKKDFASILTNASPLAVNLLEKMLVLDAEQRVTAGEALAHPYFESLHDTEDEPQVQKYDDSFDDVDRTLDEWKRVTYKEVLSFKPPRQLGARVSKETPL
The target of experiment [26] is Dual specificity protein kinase CLK4 (Homo sapiens, UniProt Q9HAZ1). The format is functional.
The target of another experiment is Beta-galactosidase (Escherichia coli, UniProt Q8VNN2). Kind of experiment: PubChem AID 485352. The class given is functional.
For a further experiment, the system named is BJ. Kind of experiment: cells. The format is functional, cell-based. The settings on record: Homo sapiens.
Experiment [27] in a line: C. albicans growth with fluconazole, confirmation, fluorescence, retest (AID 2467). The format is functional, cell-based.
The nature of experiment [28]: inhibitors of intracellular T. cruzi replication, confirmation, NIH3T3 host cells, beta-gal luminescence (AID 2044).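 Also: intracellular parasites grown in NIH/3T3 mouse fibroblasts as host cells; luminescent beta-galactosidase reporter signal from transgenic T. cruzi replicating inside host cells; inhibitors lower the luminescence signal.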 The class given is functional, cell-based.
Experiment [29] deals with Kappa-type opioid receptor (Homo sapiens, UniProt P41145). The class given is functional.

The source made the active and inactive calls.

Chain of Ribosomal protein S6 kinase alpha-3 (P51812 whole entry): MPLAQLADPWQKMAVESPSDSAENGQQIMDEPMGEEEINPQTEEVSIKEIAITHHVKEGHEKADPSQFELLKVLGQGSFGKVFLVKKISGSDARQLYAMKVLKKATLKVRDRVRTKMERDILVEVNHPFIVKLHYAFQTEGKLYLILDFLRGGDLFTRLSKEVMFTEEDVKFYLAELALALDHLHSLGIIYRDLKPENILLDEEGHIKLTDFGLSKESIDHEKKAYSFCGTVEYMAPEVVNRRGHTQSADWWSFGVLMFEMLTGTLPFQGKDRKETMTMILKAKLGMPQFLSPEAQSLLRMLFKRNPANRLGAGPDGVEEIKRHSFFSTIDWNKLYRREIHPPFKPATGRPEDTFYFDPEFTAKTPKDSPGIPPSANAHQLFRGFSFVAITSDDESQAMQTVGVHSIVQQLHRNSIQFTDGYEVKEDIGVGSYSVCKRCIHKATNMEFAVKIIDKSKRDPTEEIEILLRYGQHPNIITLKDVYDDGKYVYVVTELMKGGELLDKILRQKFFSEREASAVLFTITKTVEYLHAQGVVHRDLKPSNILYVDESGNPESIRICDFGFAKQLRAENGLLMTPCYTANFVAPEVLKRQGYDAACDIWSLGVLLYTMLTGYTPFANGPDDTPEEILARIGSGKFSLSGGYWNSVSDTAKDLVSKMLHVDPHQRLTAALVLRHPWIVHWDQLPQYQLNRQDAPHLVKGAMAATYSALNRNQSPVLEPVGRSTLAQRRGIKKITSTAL

Broadly, the EC50 is the midpoint of the concentration-response curve. Regarding `CN(C)c1ncc(C2=C(Cl)C(=O)C(N3CCCC3)=C(Cl)C2=O)s1`, the concentration giving a half-maximal response (EC50) with H4 was 34100 nM (active).
One may read the AC50 as the concentration giving half of the maximal activity seen. Take `Cc1cnc(NC(=O)c2sc3ccccc3c2Cl)s1`: the AC50 in experiment [1] was 25400 nM (active); in [2], 3070 nM (active).
The IC50 is the concentration at which inhibition is half-maximal. `O=C1C(O)=C/C(=N\c2ccccc2O)c2ccccc21`: in the experiment with HEK293, the IC50 was > 20000 nM (inactive).
As usually defined, the Ki is a measure of affinity in units of concentration, obtained from inhibition or displacement. For the compound `O=C1NC(=S)SC1=C1C(=O)Nc2ccc(Br)cc21`, the Ki in [3] is > 2000 nM (inactive); in experiment [4], > 7940 nM (inactive); in [5], > 7940 nM (inactive); in experiment [6] it was > 10000 nM (inactive); in experiment [7], > 7940 nM (inactive); in experiment [8] it was > 1260 nM (inactive). Further, the Ki in experiment [9] is 501 nM (active); in experiment [10], > 2000 nM (inactive); in [11], 631 nM (active); at Aurora kinase A, 501 nM (active); in experiment [12], > 1260 nM (inactive); in [13], > 5010 nM (inactive). Also, the Ki in experiment [14] was 1260 nM (active); in experiment [15], > 1580 nM (inactive); in [16], 50.1 nM (active); in [17], > 6310 nM (inactive); in experiment [18] it was > 3160 nM (inactive); in experiment [19], > 631 nM (inactive). The Ki was > 10000 nM (inactive) in experiment [20]; > 1580 nM (inactive) at Focal adhesion kinase 1; 2510 nM (active) on Aurora kinase B; > 10000 nM (inactive) in experiment [21]; > 2000 nM (inactive) in experiment [22]; 6310 nM (active) in experiment [23]. For the same compound, the Ki in experiment [24] is 501 nM (active); in experiment [25] it was > 6310 nM (inactive); in [26], 631 nM (active).
Consider `Cc1ccc(Nc2cc(C)nn2-c2nc(C)cc(O)n2)cc1`, for which the EC50 was > 40000 nM (inactive) on Beta-galactosidase, 14000 nM (active) in the experiment with BJ, < 30 nM (active) in experiment [27] and < 100 nM (active) in experiment [28]. This compound also gave an IC50 in experiment [29] above 32000 nM.
